{"source": "patent US9399626B2", "about": "“2-thiopyrimidinones” (Pfizer Inc., priority 2011, dated 2016)", "molecular_target": "T1, MPO (purified from human polynuclear leukocytes) (Homo sapiens, UniProt P05164)", "T1 construct": "purified from human polynuclear leukocytes; purchased Calbiochem/EMD Biosciences; host or cells: human polynuclear leukocytes (natural source)", "T1 sequence (P05164 279-745 limits assumed)": "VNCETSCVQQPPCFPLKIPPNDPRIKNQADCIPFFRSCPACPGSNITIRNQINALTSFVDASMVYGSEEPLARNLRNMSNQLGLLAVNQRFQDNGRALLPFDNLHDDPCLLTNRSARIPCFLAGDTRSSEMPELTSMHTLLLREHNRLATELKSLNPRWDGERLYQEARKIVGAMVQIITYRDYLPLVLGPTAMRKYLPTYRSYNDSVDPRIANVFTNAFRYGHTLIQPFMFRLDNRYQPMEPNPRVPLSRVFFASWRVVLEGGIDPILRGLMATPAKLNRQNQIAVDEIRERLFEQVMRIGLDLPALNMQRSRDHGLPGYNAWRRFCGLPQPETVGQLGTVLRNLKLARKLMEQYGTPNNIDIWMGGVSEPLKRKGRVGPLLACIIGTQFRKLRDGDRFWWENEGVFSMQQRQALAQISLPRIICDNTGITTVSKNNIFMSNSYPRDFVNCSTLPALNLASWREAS", "T1 sequence (P05164 165-273 limits assumed)": "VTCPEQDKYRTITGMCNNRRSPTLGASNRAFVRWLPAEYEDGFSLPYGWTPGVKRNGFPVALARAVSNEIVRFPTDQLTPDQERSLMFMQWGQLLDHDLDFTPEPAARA", "experiment": "MPO Amplex Red Activity Assay", "format": "biochemical", "details": "Table 1, 2 μM H2O2, pH 7.4", "outline": "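Potency is given as kinact/KI: kobs values from 600 s progress curves, minus the uninhibited rate, are fit against inhibitor concentration. Reactions use 2 μM H2O2, 30 μM Amplex Red, pH 7.4 phosphate buffer with NaCl, DTPA and 2% DMSO, started with […] human MPO. Readout is resorufin fluorescence, catalase background subtracted.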", "note": "Structures can show the parent of a compound that is named as a salt."}
{"smiles": "COc1ccc(F)cc1-c1cc(=O)[nH]c(=S)n1CCNC(=O)CN", "note": "[Example 127, N-{2-[6-(5-fluoro-2-methoxyphenyl)-4-oxo-2-thioxo-3,4-dihydropyrimidin-1(2H)-yl]ethyl} glycinamide hydrochloride]", "values": [{"measurement": "MPO kinact/Ki", "result": "5810 1/s per M"}]}
{"smiles": "COc1ccc(Cl)cc1-c1cc(=O)[nH]c(=S)n1CCN=C(N)N", "note": "[Example 128, 2-{2-[6-(5-chloro-2-methoxyphenyl)-4-oxo-2-thioxo-3,4-dihydropyrimidin-1(2H)-yl]ethyl} guanidine hydrochloride]", "values": [{"measurement": "MPO kinact/Ki", "result": "7680 1/s per M"}]}
{"smiles": "COc1cc(OC)c(-c2cc(=O)[nH]c(=S)n2CCCN)cc1Cl", "note": "[Example 129, 1-(3-aminopropyl)-6-(5-chloro-2,4-dimethoxyphenyl)-2-thioxo-2,3-dihydropyrimidin-4(1H)-one hydrochloride]", "values": [{"measurement": "MPO kinact/Ki", "result": "18700 1/s per M"}]}
{"smiles": "N=C(N)NCCn1c(-c2ccccc2-n2nccn2)cc(=O)[nH]c1=S", "note": "[Example 130, 1-(2-{4-oxo-2-thioxo-6-[2-(2H-1,2,3-triazol-2-yl)phenyl]-3,4-dihydropyrimidin-1(2H)-yl}ethyl)guanidine hydrochloride]", "values": [{"measurement": "MPO kinact/Ki", "result": "4830 1/s per M"}]}
{"smiles": "COc1ccc(OC)c(-c2cc(=O)[nH]c(=S)n2CCCN=C(N)N)c1", "note": "[Example 131, 2-{3-[6-(2,5-dimethoxyphenyl)-4-oxo-2-thioxo-3,4-dihydropyrimidin-1(2H)-yl]propyl} guanidine trifluoroacetate]", "values": [{"measurement": "MPO kinact/Ki", "result": "14500 1/s per M"}]}
{"smiles": "COc1ccc(Cl)cc1-c1cc(=O)[nH]c(=S)n1CC1CCNCC1", "note": "[Example 132, 6-(5-chloro-2-methoxyphenyl)-1-(piperidin-4-ylmethyl)-2-thioxo-2,3-dihydropyrimidin-4(1H)-one hydrochloride]", "values": [{"measurement": "MPO kinact/Ki", "result": "3840 1/s per M"}]}
{"smiles": "COc1ccc(Cl)cc1-c1cc(=O)[nH]c(=S)n1CCCN=C(N)N", "note": "[Example 133, 2-{3-[6-(5-chloro-2-methoxyphenyl)-4-oxo-2-thioxo-3,4-dihydropyrimidin-1(2H)-yl]propyl} guanidine]", "values": [{"measurement": "MPO kinact/Ki", "result": "15300 1/s per M"}]}
{"smiles": "COc1ccc(Cl)cc1-c1cc(=O)[nH]c(=S)n1CCCNC(C)=O", "note": "[Example 134, N-{3-[6-(5-chloro-2-methoxyphenyl)-4-oxo-2-thioxo-3,4-dihydropyrimidin-1(2H)-yl]propyl} acetamide]", "values": [{"measurement": "MPO kinact/Ki", "result": "5350 1/s per M"}]}
{"smiles": "COc1ccc(Cl)cc1-c1cc(=O)[nH]c(=S)n1CCNC(=O)CN", "note": "[Example 135, N-{2-[6-(5-chloro-2-methoxyphenyl)-4-oxo-2-thioxo-3,4-dihydropyrimidin-1(2H)-yl]ethyl} glycinamide hydrochloride]", "values": [{"measurement": "MPO kinact/Ki", "result": "6750 1/s per M"}]}
{"smiles": "COc1ccc(-c2cc(=O)[nH]c(=S)n2CCNC(=N)NC#N)c(OC)c1", "note": "[Example 136, 1-cyano-3-{2-[6-(2,4-dimethoxyphenyl)-4-oxo-2-thioxo-3,4-dihydropyrimidin-1(2H)-yl]ethyl}guanidine]", "values": [{"measurement": "MPO kinact/Ki", "result": "1920 1/s per M"}]}
{"smiles": "COc1ccc(-c2cc(=O)[nH]c(=S)n2CC(=O)OC(C)(C)C)c(OC)c1", "note": "[Example 137, tert-butyl[6-(2,4-dimethoxyphenyl)-4-oxo-2-thioxo-3,4-dihydropyrimidin-1(2H)-yl]acetate]", "values": [{"measurement": "MPO kinact/Ki", "result": "701 1/s per M"}]}
{"smiles": "COc1cc(OC)c(-c2cc(=O)[nH]c(=S)n2CCN=C(N)N)cc1OC", "note": "[Example 138, 2-{2-[4-oxo-2-thioxo-6-(2,4,5-trimethoxyphenyl)-3,4-dihydropyrimidin-1(2H)-yl]ethyl}guanidine hydrochloride]", "values": [{"measurement": "MPO kinact/Ki", "result": "4530 1/s per M"}]}
{"smiles": "CCOC(=O)Cn1c(-c2cc(OC)c(OC)cc2OC)cc(=O)[nH]c1=S", "note": "[Example 139, ethyl[4-oxo-2-thioxo-6-(2,4,5-trimethoxyphenyl)-3,4-dihydropyrimidin-1(2H)-yl]acetate]", "values": [{"measurement": "MPO kinact/Ki", "result": "2890 1/s per M"}]}
{"smiles": "COc1ccc(-c2cc(=O)[nH]c(=S)n2CCOCCNC(=N)N)c(OC)c1", "note": "[Example 140, 1-(2-{2-[6-(2,4-dimethoxyphenyl)-4-oxo-2-thioxo-3,4-dihydropyrimidin-1(2H)-yl]ethoxy}ethyl) guanidine formate]", "values": [{"measurement": "MPO kinact/Ki", "result": "10400 1/s per M"}]}
{"smiles": "COc1cc(OC)c(-c2cc(=O)[nH]c(=S)n2CCCN=C(N)N)cc1OC", "note": "[Example 141, 2-{3-[4-oxo-2-thioxo-6-(2,4,5-trimethoxyphenyl)-3,4-dihydropyrimidin-1(2H)-yl]propyl} guanidine trifluoroacetate]", "values": [{"measurement": "MPO kinact/Ki", "result": "10500 1/s per M"}]}
{"smiles": "NCCn1c(-c2cccc3[nH]ccc23)cc(=O)[nH]c1=S", "note": "[Example 142, 1-(2-aminoethyl)-6-(1H-indol-4-yl)-2-thioxo-2,3-dihydropyrimidin-4(1H)-one trifluoroacetate]", "values": [{"measurement": "MPO kinact/Ki", "result": "4210 1/s per M"}]}
{"smiles": "NCCn1c(-c2cccc3ccoc23)cc(=O)[nH]c1=S", "note": "[Example 143, 1-(2-aminoethyl)-6-(1-benzofuran-7-yl)-2-thioxo-2,3-dihydropyrimidin-4(1H)-one hydrochloride]", "values": [{"measurement": "MPO kinact/Ki", "result": "8110 1/s per M"}]}
{"smiles": "NCCn1c(-c2ccccc2-n2nccn2)cc(=O)[nH]c1=S", "note": "[Example 144, 1-(2-aminoethyl)-2-thioxo-6-[2-(2H-1,2,3-triazol-2-yl)phenyl]-2,3-dihydropyrimidin-4(1H)-one hydrochloride]", "values": [{"measurement": "MPO kinact/Ki", "result": "6010 1/s per M"}]}
{"smiles": "COc1ncc(Cl)cc1-c1cc(=O)[nH]c(=S)n1CC(N)=O", "note": "[Example 145, 2-[6-(5-chloro-2-methoxypyridin-3-yl)-4-oxo-2-thioxo-3,4-dihydropyrimidin-1(2H)-yl]acetamide]", "values": [{"measurement": "MPO kinact/Ki", "result": "5080 1/s per M"}]}
{"smiles": "COc1cc(OC)c(-c2cc(=O)[nH]c(=S)n2CC(N)=O)cc1C", "note": "[Example 146, 2-[6-(2,4-dimethoxy-5-methylphenyl)-4-oxo-2-thioxo-3,4-dihydropyrimidin-1(2H)-yl]acetamide]", "values": [{"measurement": "MPO kinact/Ki", "result": "8950 1/s per M"}]}
{"smiles": "COc1cc(-c2cc(=O)[nH]c(=S)n2CC(N)=O)c(OC)cc1C", "note": "[Example 147, 2-[6-(2,5-dimethoxy-4-methylphenyl)-4-oxo-2-thioxo-3,4-dihydropyrimidin-1(2H)-yl]acetamide]", "values": [{"measurement": "MPO kinact/Ki", "result": "6500 1/s per M"}]}
{"smiles": "COc1ccc(Cl)cc1-c1cc(=O)[nH]c(=S)n1CCCNC(N)=O", "note": "[Example 148, 1-{3-[6-(5-chloro-2-methoxyphenyl)-4-oxo-2-thioxo-3,4-dihydropyrimidin-1(2H)-yl]propyl}urea]", "values": [{"measurement": "MPO kinact/Ki", "result": "6690 1/s per M"}]}
{"smiles": "COc1ccc(Cl)cc1-c1cc(=O)[nH]c(=S)n1CCCNC(=O)CN", "note": "[Example 149, N-{3-[6-(5-chloro-2-methoxyphenyl)-4-oxo-2-thioxo-3,4-dihydropyrimidin-1(2H)-yl]propyl} glycinamide hydrochloride]", "values": [{"measurement": "MPO kinact/Ki", "result": "9770 1/s per M"}]}
{"smiles": "COc1ncc(C)cc1-c1cc(=O)[nH]c(=S)n1CCO", "note": "[Example 150, 1-(2-hydroxyethyl)-6-(2-methoxy-5-methylpyridin-3-yl)-2-thioxo-2,3-dihydropyrimidin-4(1H)-one]", "values": [{"measurement": "MPO kinact/Ki", "result": "8970 1/s per M"}]}
{"smiles": "COc1ccc(-c2cc(=O)[nH]c(=S)n2C[C@@H]2CCCNC2)c(OC)c1", "note": "[Example 151, 6-(2,4-dimethoxyphenyl)-1-[(3R)-piperidin-3-ylmethyl]-2-thioxo-2,3-dihydropyrimidin-4(1H)-one hydrochloride]", "values": [{"measurement": "MPO kinact/Ki", "result": "3740 1/s per M"}]}
{"smiles": "COc1ccc(-c2cc(=O)[nH]c(=S)n2CCC2CCNCC2)c(OC)c1", "note": "[Example 152, 6-(2,4-dimethoxyphenyl)-1-(2-piperidin-4-ylethyl)-2-thioxo-2,3-dihydropyrimidin-4(1H)-one hydrochloride]", "values": [{"measurement": "MPO kinact/Ki", "result": "4770 1/s per M"}]}
{"smiles": "COc1ccc(-c2cc(=O)[nH]c(=S)n2CCC2CCN(C(C)=O)CC2)c(OC)c1", "note": "[Example 153, 1-[2-(1-acetylpiperidin-4-yl)ethyl]-6-(2,4-dimethoxyphenyl)-2-thioxo-2,3-dihydropyrimidin-4(1H)-one]", "values": [{"measurement": "MPO kinact/Ki", "result": "2200 1/s per M"}]}
{"smiles": "COCCn1c(-c2ncc[nH]2)cc(=O)[nH]c1=S", "note": "[Example 154, 6-(1H-imidazol-2-yl)-1-(2-methoxyethyl)-2-thioxo-2,3-dihydropyrimidin-4(1H)-one]", "values": [{"measurement": "MPO kinact/Ki", "result": "1070 1/s per M"}]}
{"smiles": "COc1cccc(-c2cc(=O)[nH]c(=S)n2CCO)c1", "note": "[Example 155, 1-(2-hydroxyethyl)-6-(3-methoxyphenyl)-2-thioxo-2,3-dihydropyrimidin-4(1H)-one]", "values": [{"measurement": "MPO kinact/Ki", "result": "8090 1/s per M"}]}
{"smiles": "COc1ccccc1-c1cc(=O)[nH]c(=S)n1CCO", "note": "[Example 156, 1-(2-hydroxyethyl)-6-(2-methoxyphenyl)-2-thioxo-2,3-dihydropyrimidin-4(1H)-one]", "values": [{"measurement": "MPO kinact/Ki", "result": "16800 1/s per M"}]}
{"smiles": "COc1cccc(OC)c1-c1cc(=O)[nH]c(=S)n1C", "note": "[Example 157, 6-(2,6-dimethoxyphenyl)-1-methyl-2-thioxo-2,3-dihydropyrimidin-4(1H)-one]", "values": [{"measurement": "MPO kinact/Ki", "result": "7320 1/s per M"}]}
{"smiles": "COCCn1c(-c2ccccc2F)cc(=O)[nH]c1=S", "note": "[Example 158, 6-(2-fluorophenyl)-1-(2-methoxyethyl)-2-thioxo-2,3-dihydropyrimidin-4(1H)-one]", "values": [{"measurement": "MPO kinact/Ki", "result": "1750 1/s per M"}]}
{"smiles": "COc1ccc(C)cc1-c1cc(=O)[nH]c(=S)n1CCN", "note": "[Example 159, 1-(2-aminoethyl)-6-(2-methoxy-5-methylphenyl)-2-thioxo-2,3-dihydropyrimidin-4(1H)-one hydrochloride]", "values": [{"measurement": "MPO kinact/Ki", "result": "11400 1/s per M"}]}
{"smiles": "COCCn1c(-c2ccccc2OC)cc(=O)[nH]c1=S", "note": "[Example 160, 1-(2-methoxyethyl)-6-(2-methoxyphenyl)-2-thioxo-2,3-dihydropyrimidin-4(1H)-one]", "values": [{"measurement": "MPO kinact/Ki", "result": "7540 1/s per M"}]}
{"smiles": "COc1ccc(C)cc1-c1cc(=O)[nH]c(=S)n1CCO", "note": "[Example 161, 1-(2-hydroxyethyl)-6-(2-methoxy-5-methylphenyl)-2-thioxo-2,3-dihydropyrimidin-4(1H)-one]", "values": [{"measurement": "MPO kinact/Ki", "result": "29600 1/s per M"}]}
{"smiles": "O=c1cc(-c2cccc3ccccc23)n(CCO)c(=S)[nH]1", "note": "[Example 162, 1-(2-hydroxyethyl)-6-(1-naphthyl)-2-thioxo-2,3-dihydropyrimidin-4(1H)-one]", "values": [{"measurement": "MPO kinact/Ki", "result": "8950 1/s per M"}]}
